{"source": "patent US12297165B2", "about": "“Oligothioetheramides (oligoteas) as anti-microbial and anti-bacterial agents” (Cornell University, priority 2017, dated 2025)", "assay_type_in_all_cases": "cell-based", "key": {"[1]": {"system": "Pseudomonas aeruginosa (PA-14, PA-1)", "test": "MIC assay, Pseudomonas aeruginosa strains", "conditions": "Pseudomonas aeruginosa PA-14 and PA-1", "text": "PA-14 is a highly virulent Pseudomonas aeruginosa strain (Gram-negative) that is difficult to treat. PA-1 is a meropenem resistant clinical isolate of Pseudomonas aeruginosa that was obtained from a patient. Meropenem, vancomycin and polymyxin B are commercial antibiotics that are used as controls."}, "[2]": {"system": "methicillin resistant Staphylococcus aureus (MRSA) (ATCC 33591)", "test": "Minimum inhibitory concentration (MIC) assay, MRSA", "description": "(§1) Biological Assays: Minimum inhibitory concentration (MIC) assay: A single bacterial colony (Bacillus subtilis (B. subtilis) or methicillin-resistant Staphylococcus aureus (MRSA)) was selected and incubated in media (Luria Broth (LB) for B. subtilis or Tryptic Soy Broth (TSB) for MRSA) at 37° C. overnight. This was sub-cultured in media and incubated at 37° C. until the OD600 was approximately 0.5 (2.5-3.5-hour incubation). The subculture was diluted with media to an OD600 of 0.001. Diluted subculture and 1 mM stocks of compounds to be tested were added to a clear 96-well plate, and serially diluted by a factor of 0.5. The well plate was incubated overnight and the absorbance was measured at 600 nm using the TECAN. To determine the MIC in presence of serum, assays were repeated using media with 20% heat-inactivated mouse serum or 20% fetal bovine serum. […] The MIC50 was calculated using a 4PL sigmoidal nonlinear regression on Prism. The MIC100 was calculated as the first point below 10% of the maximum."}, "[3]": {"system": "Bacillus subtilis", "test": "Minimum inhibitory concentration (MIC) assay, B. subtilis", "description": "as §1\nThe MIC of PEG24-LL-PDT4G against B. subtilis was compared with the MIC of unmodified PDT-4G. Both compounds were pre-incubated with B. subtilis supernatant for 0, 4, or 24 hours before the MIC assay to test cleavage kinetics (FIG. 53)."}, "[4]": {"system": "community associated Staphylococcus aureus (strain USA300)", "test": "Minimum inhibitory concentration (MIC) assay, S. aureus USA300", "description": "as §1"}, "[5]": {"system": "E. coli", "test": "Minimum inhibitory concentration (MIC) assay, E. coli"}, "[6]": {"system": "bacterial membrane", "test": "Cytoplasmic permeability assay with propidium iodide, fluorescence microscopy", "conditions": "incubated with PI", "description": "Membrane permeabilization propidium iodide (PI) assay: 1 mM BDT-4G stock solutions were prepared in DMSO. B. subtilis strains were streaked onto a Luria Broth (LB) agar plate and incubated overnight. One colony was selected and incubated in LB overnight, then subcultured and incubated until the OD600 measured between 0.5 and 0.6. Bacteria were harvested, washed, and resuspended in a solution of 5 mM HEPES, 5 mM glucose, and 10 μM propidium iodide. 150 μL bacteria solution was added to each well of a black 96 well plate. Fluorescence measurements were taken at 535 nm excitation, 617 nm emission on a TECAN Infinite M1000 PRO Microplate reader (Männdorf) (TECAN) for 2 minutes. BDT-4G stock solution was added for a concentration of 15 μg/mL, and fluorescence measurements were taken for an additional 20 minutes.\nMembrane permeabilization dictates lytic potential. A cytoplasmic permeability assay was performed using propidium iodide (PI). PI is a cell impermeant intercalating agent that fluoresces when bound to nucleic acids. As such, PI can be used to identify cells with compromised membranes by measuring an increase in fluorescence above the baseline. This phenomenon was qualitatively confirmed by performing fluorescence microscopy studies incubated with PI with or without the AOTs. […]"}, "[7]": {"system": "cell membrane of methicillin resistant Staphylococcus aureus (MRSA)", "test": "Membrane permeabilization propidium iodide (PI) assay, MRSA"}, "[8]": {"conditions": "normal (Tryptic Soy media) media"}, "[9]": {"conditions": "presence of elevated calcium and magnesium ions (25 mM) and presence of heat-inactivated fetal bovine serum"}, "[10]": {"conditions": "presence of elevated calcium and magnesium ions (25 mM)"}}}
{"smiles": "C=CCN(CCNC(=N)N)C(=O)CCSCCCSCCCN(CCNC(=N)N)C(=O)CCSCc1cccc(CSCCCN(CCNC(=N)N)C(=O)CCSCCCSCCCN)c1", "note": "[3GMG3G]", "values": [{"measurement": "activity relative to the para substituted compound (3GPG3G)", "setting": "[1]", "result": "2-4 fold"}]}
{"smiles": "C=CCN(CCNC(=N)N)C(=O)CCSCCCCSCCCN(CCNC(=N)N)C(=O)CCSCCCCSCCCN(CCNC(=N)N)C(=O)CCSCCCCSCCCN(CCNC(=N)N)C(=O)CCSCCCCSCCCN(CCNC(=N)N)C(=O)CCSCCCCSCCCN", "note": "[BDT-5G]", "values": [{"measurement": "antibacterial activity (MIC100) against MRSA", "setting": "[2]; [8]", "result": "show activity"}, {"measurement": "antibacterial activity (MIC100) against MRSA", "setting": "[2]; [9]", "result": "maintain their antibacterial activity"}, {"measurement": "antibacterial activity (MIC100) against Bacillus subtilis", "setting": "[3]; normal (LB media) media", "result": "show activity"}, {"measurement": "antibacterial activity (MIC100) against Bacillus subtilis", "setting": "[3]; [10]", "result": "maintain their antibacterial activity"}, {"measurement": "antibacterial activity (MIC100) against Staphylococcus aureus strain USA300", "setting": "[4]; [8]", "result": "show activity"}, {"measurement": "antibacterial activity (MIC100) against Staphylococcus aureus strain USA300", "setting": "[4]; [9]", "result": "maintain their antibacterial activity"}, {"measurement": "antibacterial activity (MIC100) against E. coli", "setting": "[5]; normal (LB media) media", "result": "show activity"}, {"measurement": "antibacterial activity (MIC100) against E. coli", "setting": "[5]; [10]", "result": "maintain their antibacterial activity"}]}
{"smiles": "CN[C@H](CC(C)C)C(=O)N[C@H]1C(=O)N[C@@H](CC(N)=O)C(=O)N[C@H]2C(=O)N[C@H]3C(=O)N[C@H](C(=O)N[C@H](C(=O)O)c4cc(O)cc(O)c4-c4cc3ccc4O)[C@H](O)c3ccc(c(Cl)c3)Oc3cc2cc(c3O[C@@H]2O[C@H](CO)[C@@H](O)[C@H](O)[C@H]2O[C@H]2C[C@](C)(N)[C@H](O)[C@H](C)O2)Oc2ccc(cc2Cl)[C@H]1O", "note": "[Vancomycin]", "values": [{"measurement": "propidium iodide entry into cells (staining)", "setting": "[6]", "result": "PI was unable to gain entry into cells"}, {"measurement": "membrane destabilization (diffusion of propidium iodide dye into the cell)", "setting": "[7]", "result": "no membrane compromise"}]}
{"smiles": "CCCCCCCCCC(=O)N[C@@H](Cc1c[nH]c2ccccc12)C(=O)N[C@H](CC(N)=O)C(=O)N[C@@H](CC(=O)O)C(=O)N[C@@H]1C(=O)NCC(=O)N[C@@H](CCCN)C(=O)N[C@@H](CC(=O)O)C(=O)N[C@H](C)C(=O)N[C@@H](CC(=O)O)C(=O)NCC(=O)N[C@H](CO)C(=O)N[C@@H]([C@H](C)CC(=O)O)C(=O)N[C@@H](CC(=O)c2ccccc2N)C(=O)O[C@@H]1C", "note": "[daptomycin]", "values": [{"measurement": "membrane destabilization (diffusion of propidium iodide dye into the cell)", "setting": "[7]", "result": "no membrane compromise"}]}
